Entries after “also recorded” stand apart in the source; their conditions may differ. Where two headings read alike, the source gives them in different places.
Tests used:
[1] = tested on: P. falciparum 3D7 strain; design: method as in PMID 23798988; settings: reported potency of Malaria Box compounds ref 13, read-out: Reported IC50^Pf; cited from earlier work
[2] = tested on: asexual intraerythrocytic stages of P. falciparum; experiment: Speed of action studies (microscopy of thin blood smears); format: cell-based, Plasmodium falciparum; settings: ring-stage parasites; for Parasite morphology during incubation: compound at tenfold the IC50, microscopy up to 36 h; for Speed of action: compound at tenfold the IC50, observed 0-36 h
Protocol: Parasites in thin blood smears were observed by microscopy after 0, 8, 16, 24 and 36 h of incubation.

[3] = tested on: Hepatocarcinoma cells (HepG2); experiment: Cytotoxicity evaluation, MTT assay; format: cell-based, human; settings: HepG2, 72 h, read-out: IC50^HepG2, MTT Average (confidence interval-95%)
Protocol: (§1) Hepatocarcinoma cells (HepG2) were cultivated in RPMI medium supplemented with 10% (v/v) fetal bovine serum and 0.2% (v/v) penicillin/streptomycin. The antibiotics were added to the medium to eliminate the potential interference of microbial contamination. Cells were cultivated at 37 °C and 5% CO2; the supplemented medium was changed every 2 days.
(§2) For the experimental procedures, cells were trypsinized and transferred to a 96-well plate at 30,000 cells per well and incubated at 37 °C overnight for cell adhesion. Then, serial dilutions of the inhibitor candidates were added to the plate. Cells without any compounds were used as positive growth controls. The plate was incubated at 37 °C and 5% CO2 for 72 h. After incubation, the highest compound concentration to be considered (highest concentration without precipitation) was observed by microscopy. Cytotoxicity was evaluated by two different methods. The first is a colorimetric assay based on metabolic cell activity in the presence of 3-(4,5-dimethylthiazol-2-yl)-2,5-diphenyltetrazolium bromide (MTT). Briefly, mitochondrial enzymes can convert the MTT dye into the purple insoluble compound formazan. To each well, 20 µL MTT at 5 mg/mL was added, followed by incubation at 37 °C for 3 to 5 h. After incubation, the supernatant was removed, and formazan crystals were solubilized in 100 µL DMSO. The absorbance, which is proportional to the number of viable cells, was determined using a SpectraMAX Plus 384 plate reader (Molecular Devices Corp., Sunnyvale, CA) (λ = 570 nm). The second method is based on the uptake of neutral red, a dye that is retained inside the lysosomes of viable cells. To each well, after removal of culture media, 200 µL neutral red medium 40 µg/mL was added, followed by incubation at 37 °C for 3 to 5 h. After incubation, supernatant was dispensed, and 200 µL 0.5% (v/v) formaldehyde in 1% (m/v) CaCl2 was added to remove excess of the dye for 5 min. Supernatant was dispensed, and 100 µL alcohol-acid solution (50% (v/v) ethanol, 1% (v/v) glacial acetic acid) was added, and the plate was stirred until a homogeneous solution was formed. The absorbance was determined using a SpectraMAX Plus 384 plate reader (Molecular Devices Corp., Sunnyvale, CA) (λ = 540 nm). For both methods, the half maximal inhibitory concentration (IC50^HepG2) was determined by non-linear regression analysis of the resulting concentration-response curve using the software Origin 2016 (OriginLab Corporation).

[4] = tested on: Hepatocarcinoma cells (HepG2); experiment: Cytotoxicity evaluation, neutral red assay; format: cell-based, human; settings: HepG2, 72 h, read-out: IC50^HepG2, NR Average (confidence interval-95%)
Protocol: as §1, §2

[5] = tested on: P. falciparum; experiment: Combination assays, isobologram analysis (FIC50 pairs); format: cell-based, Plasmodium falciparum; settings: for Isobologram data, Additive: fraction of FIC50 pairs / Isobologram data, Additive: number of FIC50 pairs / Isobologram data, Antagonistic: fraction of FIC50 pairs / Isobologram data, Antagonistic: number of FIC50 pairs / Isobologram data, Synergic: number of FIC50 pairs: combination with artesunate; for Combination profile with artesunate: isobologram, IC50 equivalent ratios 1:4, 2:3, 1:1, 3:2, 4:1
Protocol: Combinations of anti-malarial candidates with artesunate, an artemisinin derivative, were tested in fixed molar ratios based on the individual IC50 values that were previously determined by the SYBR Green I assay. Traditionally, a line (isobole) of additivity is used to distinguish between additive, synergic, and antagonistic interaction profiles. […] Thus, a systematic consideration of additivity ranges was included in the isobologram analysis, as previously described by Grabovsky and Tallarida. Concentration-response curves of individual compounds were used in the calculation of each pair’s additivity range (area within the upper and lower limits in Figs. 4 and 5). Fractional inhibitory concentration (FIC50) pairs plotted as points inside the additivity range indicate the expected sum of each compound effect, while points above and below the range indicate antagonistic and synergic interactions, respectively. The selected inhibitors were combined with artesunate in the IC50 equivalent ratios of 1:4, 2:3, 1:1, 3:2 and 4:1 for the construction of the isobolograms.

[6] = tested on: P. falciparum 3D7 strain; experiment: SYBR Green I inhibition assay for the asexual stages of P. falciparum; format: cell-based, Plasmodium falciparum; settings: 72 h, read-out: IC50^Pf Average (confidence interval-95%)
Protocol: The P. falciparum 3D7 strain was kept in culture in a humidified incubator at 37 °C in RPMI-1640 medium with 25 mM NaHCO3, 25 mM HEPES (pH 7.4), 11 mM D-glucose, 3.67 mM hypoxanthine and 25 µg/mL gentamicin, supplemented with 0.5% (m/v) AlbuMAX II. The culture medium was changed daily, and the parasitaemia was maintained below 10% with 2.5% haematocrit in human erythrocytes.
The parasites were synchronized through sterile 5% (m/v) D-sorbitol treatment over 10 min at 37 °C for the enrichment of ring-stage parasites. The cultures were pelleted by centrifugation at 600×g over 5 min. The parasitaemia was determined by microscope analysis of thin blood smears stained with Giemsa 10% (v/v) after methanol fixation. The initial parasitaemia was calculated from 1000 red blood cells (RBCs), and cultures were diluted to 0.5% parasitaemia and 2% haematocrit by adding the appropriate volumes of erythrocytes and medium. Parasite aliquots of 180 µL were distributed into 96-well plates previously prepared with 20 µL aliquots of a tenfold concentrated compound. Negative and positive control wells corresponding to non-parasitized erythrocytes and parasite cultures in the absence of compounds were set in parallel. The DMSO concentration was maintained below 0.05% (v/v). The plates were incubated for 72 h at 37 °C in a humidified incubator with a gas mixture of 90% N2, 5% O2 and 5% CO2. After incubation, the culture medium was removed, and the cells were resuspended in 100 µL PBS buffer (116 mM NaCl, 10 mM Na2HPO4, 3 mM KH2PO4) and lysed with 100 µL lysis buffer (20 mM Tris base, 5 mM EDTA, 0.0008% (v/v) Triton X-100, 0.008% (m/v) saponin, pH 8.0) containing 0.002% (v/v) SYBR Green I. Plates were incubated at room temperature for 30 min, and the fluorescence corresponding to the parasitic density was determined using a SpectraMAX Gemini EM plate reader (Molecular Devices Corp., Sunnyvale, CA) (excitation at 485 nm, emission at 535 nm). The half maximal inhibitory concentration (IC50^Pf) was determined by non-linear regression analysis of the resulting concentration-response curve using the software Origin 2016 (OriginLab Corporation).

[7] = tested on: P. berghei NK65 strain; experiment: In vivo suppressive parasite growth test against Plasmodium berghei; design: species or system Swiss outbred mice; settings: 50 mg/kg oral gavage daily for 3 days, P. berghei-infected mice
Protocol: A suppressive parasite growth test was performed in mice infected with P. berghei NK65 strain (originally received from the New York University Medical School), as described previously, with some modifications. Briefly, adult Swiss outbred mice (20 ± 2 g weight) were intraperitoneally inoculated with 1 × 10^5 red blood cells infected with P. berghei. The infected mice were maintained together for at least 2 h and then randomized into groups of 5 animals per cage, which were subsequently administered 50 mg/kg of each compound diluted in 3% (v/v) DMSO by oral gavage daily for 3 days. Two control groups were used in parallel: one was treated with CQ (20 mg/kg) and the other was treated with the vehicle. Blood smears from mouse tails were prepared on days 5 and 7 post-infection and then fixed with methanol, stained with Giemsa 10% (v/v), and examined under the microscope.

[8] = design: method as in PMID 27467575; settings: previous pharmacokinetics studies ref 30; cited from earlier work
[9] = design: method as in PMID 27467575; settings: previous pharmacokinetics studies ref 30; cited from earlier work; remark: listed apart in the source
[10] = tested on: P. falciparum; experiment: Combination assays, isobologram analysis (FIC50 pairs); format: cell-based, Plasmodium falciparum
[11] = tested on: bc1 complex; design: method as in PMID 27467575; settings: mitochondrial electron transport chain ref 30; cited from earlier work
[12] = Solubility in the cytotoxicity assay conditions; format: physicochemical; settings: HepG2 cytotoxicity assay conditions
Protocol: For the experimental procedures, cells were trypsinized and transferred to a 96-well plate at 30,000 cells per well and incubated at 37 °C overnight for cell adhesion. Then, serial dilutions of the inhibitor candidates were added to the plate. Cells without any compounds were used as positive growth controls. The plate was incubated at 37 °C and 5% CO2 for 72 h. After incubation, the highest compound concentration to be considered (highest concentration without precipitation) was observed by microscopy. Cytotoxicity was evaluated by two different methods. The first is a colorimetric assay based on metabolic cell activity in the presence of 3-(4,5-dimethylthiazol-2-yl)-2,5-diphenyltetrazolium bromide (MTT). Briefly, mitochondrial enzymes can convert the MTT dye into the purple insoluble compound formazan. […] The absorbance, which is proportional to the number of viable cells, was determined using a SpectraMAX Plus 384 plate reader (Molecular Devices Corp., Sunnyvale, CA) (λ = 570 nm). […] The absorbance was determined using a SpectraMAX Plus 384 plate reader (Molecular Devices Corp., Sunnyvale, CA) (λ = 540 nm). For both methods, the half maximal inhibitory concentration (IC50^HepG2) was determined by non-linear regression analysis of the resulting concentration-response curve using the software Origin 2016 (OriginLab Corporation).

[13] = tested on: P. falciparum; settings: cited from earlier work

| IC50 [6] [nM] | SMILES | IC50 [1] [nM] | Parasite morphology during incubation [2] | Speed of action [2] | IC50 [3] [nM] | IC50 [4] [nM] | Isobologram data, Additive: fraction of FIC50 pairs [5] [%] | Isobologram data, Additive: number of FIC50 pairs [5] | Isobologram data, Antagonistic: fraction of FIC50 pairs [5] [%] | Isobologram data, Antagonistic: number of FIC50 pairs [5] | Isobologram data, Synergic: number of FIC50 pairs [5] | Combination profile with artesunate [5] | Combination profile with proguanil [10] | also measured |
| --- | --- | --- | --- | --- | --- | --- | --- | --- | --- | --- | --- | --- | --- | --- |
| 400 | CCOC(=O)C1=C(C)N=c2sc(=Cc3cc(Cl)ccc3O)c(=O)n2C1c1ccc(OC)cc1 (stereo not drawn) [Compound 2] | 489 | pyknotic nuclei formation | Fast | 22000 | 22000 | 92 | 12 | 8 | 1 | 0 | additive profile |  | Combination profile with artesunate ([5]; listed as 02): Additivity; % of reduction of parasitaemia, day 5 after infection [7]: 64%; % of reduction of parasitaemia, day 7 after infection [7]: 33%; Oral bioavailability [8]: poor; Plasma protein binding [9]: > 99% |
| 1200 | O=C1c2ccccc2-c2nnc(-c3ccc(Br)cc3)cc21 [Compound 6] | 1070 | young trophozoites were observed after 36 h | slow-acting and Slow | > 12500 | > 12500 | 15 | 2 | 85 | 11 | 0 |  | highly synergic | Combination profile with artesunate ([5]; listed as 06): Antagonism; Molecular target [11]: inhibitor of the mitochondrial electron transport chain targeting the bc1 complex |
| 850 | Cc1cc(NC(=O)c2ccc(-c3ccccc3)cc2)no1 [Compound 10] | 693 | punctual shapes after 16 h | Fast |  |  | 38 | 5 | 62 | 8 | 0 | antagonistic; also recorded: Antagonism |  | Solubility in the assay conditions [12]: low solubility |
|  | O=C1C(O)=C([C@H]2CC[C@H](c3ccc(Cl)cc3)CC2)C(=O)c2ccccc21 [atovaquone, reference compound] |  |  |  |  |  |  |  |  |  |  | antagonistic | synergic | Speed of action (literature) [13]: slow |
